Data on 5 compounds can be found in ChEMBL document CHEMBL5729255, “Compounds and uses thereof” (2022).

SMILES strings stand for the structures. pIC50: −log10 of the molar value.

The test has as its target T1, Bromodomain-containing protein 9 (Homo sapiens, UniProt Q9H8M2).
T1 sequence (Q9H8M2 whole entry): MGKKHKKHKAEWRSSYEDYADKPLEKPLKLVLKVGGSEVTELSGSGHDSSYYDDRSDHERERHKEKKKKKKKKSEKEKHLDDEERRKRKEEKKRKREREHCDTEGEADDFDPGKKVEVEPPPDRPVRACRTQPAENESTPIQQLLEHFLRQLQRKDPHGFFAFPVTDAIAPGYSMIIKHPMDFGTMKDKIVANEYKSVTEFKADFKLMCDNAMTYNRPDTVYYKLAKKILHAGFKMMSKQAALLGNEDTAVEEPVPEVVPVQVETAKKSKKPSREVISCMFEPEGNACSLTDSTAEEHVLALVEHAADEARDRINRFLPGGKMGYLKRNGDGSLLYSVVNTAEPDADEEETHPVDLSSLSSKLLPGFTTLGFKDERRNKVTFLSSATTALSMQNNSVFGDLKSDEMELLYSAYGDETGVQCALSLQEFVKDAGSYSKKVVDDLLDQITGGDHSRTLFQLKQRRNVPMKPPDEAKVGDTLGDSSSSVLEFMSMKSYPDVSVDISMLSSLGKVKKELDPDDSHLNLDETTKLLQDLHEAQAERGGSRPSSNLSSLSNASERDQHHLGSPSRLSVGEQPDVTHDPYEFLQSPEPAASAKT
The test can be described thus: Bromodomain TR-FRET Competition Binding Assay: A mixture of biotinylated-ligand and SureLight Allophycocyanin-Streptavidin (APC-SA, PerkinElmer AD0201) in 50 mM HEPES (pH 7.4), 50 mM NaCl, 1 mM TCEP (pH 7), 0.01% (v/v) Tween-20, 0.01% (w/v) bovine serum albumin was added to a white 384-well PerkinElmer Proxiplate Plus plate. DMSO or 3-fold serially diluted compounds were then added to the Proxiplate followed by addition of Flag-BRD9. After a 10-minute incubation at room temperature, Eu-W1024 anti-FLAG (PerkinElmer, AD0273) was added. The final reaction miture that contained 3.75 nM biotinylated ligand, 3 nM Flag-BRD9, 7.5 nM SureLight Allophycocyanin-Streptavidin, and 0.2 nM Eu-W1024 anti-FLAG was incubated at room temperature for 90 minutes.
As to `COc1cc(-c2cn(C)c(=O)c3cnccc23)cc(OC)c1CN1CCN(C(=O)CCCCOc2cccc3c2C(=O)N(C2CCC(=O)NC2=O)C3=O)CC1` (stereo not given), the pIC50 was > 8.00. In the case of `COc1cc(-c2cn(C)c(=O)c3cnccc23)cc(OC)c1CN(C)Cc1cn(-c2ccc3c(c2)C(=O)N(C2CCC(=O)NC2=O)C3=O)nn1` (stereo not given) it was < 8.00; in that of `COc1cc(-c2cn(C)c(=O)c3cnccc23)cc(OC)c1CN1CCCC(OCc2cn(CCCCOc3ccc4c(c3)C(=O)N(C3CCC(=O)NC3=O)C4=O)nn2)C1` (stereo not given), < 8.00; in that of `COc1cc(-c2cn(C)c(=O)c3cnccc23)cc(OC)c1CN1CC(OCc2cn(CCOc3ccc4c(c3)C(=O)N(C3CCC(=O)NC3=O)C4=O)nn2)C1` (stereo not given), > 8.00. For the compound `COc1cc(-c2cn(C)c(=O)c3cnccc23)cc(OC)c1CN1CC(S(=O)(=O)NCCCCNc2ccc3c(c2)C(=O)N(C2CCC(=O)NC2=O)C3=O)C1` (stereo not given), the pIC50 was > 8.00.
